{"source": "patent US11034663B2", "about": "“Tetrahydronaphtho[1,2-b]furan-2(3H)-one derivatives and preparation and uses thereof” (SHANGHAI QINGDONG BIOTECHNOLOGY CO., LTD., priority 2017, dated 2021)", "tested_on": "adjuvant-induced arthritis in rats", "assay": "Therapeutic effect on adjuvant-induced arthritis in rats", "type": "in vivo, Wistar male rats", "experimental": "Wistar male rats, weighing 160-180 g, were raised in the SPF animal room of Shanghai University of Traditional Chinese Medicine, and employed for experiment following at least one week of culture, where the culture was performed at a temperature of 22+1° C. and a humidity of 55±5% under a 12-h light-dark cycle. The feed and water were sterilized and then freely taken by rats. All experiments were carried out in strict accordance with the relevant regulations for experimental animals.\nBacille Calmette-Guerin (BCG) H37Ra was purchased from Difco Co., Ltd. (US); and the YSL-7A Plethysmometer (paw volume) Meter was produced by the equipment station of Shandong Academy of Medical Sciences.\nThe establishment of the adjuvant-induced arthritis rat model and the administration therefor were described performed as follows. Liquid paraffin was sterilized at high temperature and pressure, added with a 10 mg/mL aqueous BCG solution and emulsified under repeated suction to produce a Freund's complete adjuvant (CFA) emulsion. In the experiment, individual rats were sensitized by intradermal injection of 0.1 mL of the CFA emulsion at the left hind paw to induce adjuvant arthritis in the limbs.\nThe grouping and administration were performed as follows. The male wistar rats were randomly divided into four groups according to weight each for 10 rats.\nThe rats in the blank control group were treated with 0.3% CMC solution daily by intragastric administration.\nThe rats in the arthritis solvent control group were similarly treated with 0.3% CMC solution daily by intragastric administration.\nRats from the two administration groups were respectively treated with 5 mg/kg and 20 mg/kg of compound 59 by oral administration once a day.\nIn addition to the blank control group, the rats in the other three groups were sensitized individually by […] injection of 0.1 mL of an adjuvant containing 10 mg/mL inactivated bacillus strain at the left hind foot pad. From the 10th day after the occurrence of arthritis, the rats in the administration groups were orally administered for therapeutic pharmacodynamic observation.\nThe therapeutic effect was monitored as follows. The rats were observed every day for the development of arthritis symptoms and weighed once every 2-3 days. A 5-level standard scoring system based on the clinical disease index was employed to evaluate the inflammation, where “0”: no redness and swelling; “1”: redness and swelling at the small toe joints; “2”: swelling at the toe joints and toes; “3”: swelling at feet below the ankle joint; and “4”: swelling at the entire feet including ankle joint. The two hind feet were measured for the volume to evaluate the swelling degree.", "note": "Entries after “also recorded” stand apart in the source; their conditions may differ."}
{"smiles": "Cc1cc(OCc2ccccc2Br)c(C)c2c1CC[C@H]1C(CN(C)C)C(=O)O[C@@H]21", "note": "(mixture of isomers) [Compound 59, (3R/S,3aS,9bR)-8-(2-bromobenzyloxy)-3-dimethylaminomethyl-6,9-dimethyl-3a, 4,5,9b-tetrahydronaphtho [1,2-b]furan-2(3H)-one]", "values": [{"measurement": "effect on weight of rats with adjuvant-induced arthritis", "setting": "5 mg/kg and 20 mg/kg, oral, once a day, from the 10th day after occurrence of arthritis, FIG. 1", "value": "showed similar effect on the weight; also recorded: no significant effect on the weight loss"}, {"measurement": "disease index of arthritis (clinical disease index, 0-4 score)", "setting": "5 mg/kg and 20 mg/kg, oral, once a day, compared to the model group, P<0.05, FIG. 2", "value": "significantly lowered"}, {"measurement": "secondary foot lesions (foot swelling, opposite side)", "setting": "5 mg/kg and 20 mg/kg, oral, once a day, compared to the model group, P<0.05, FIG. 3", "value": "significantly inhibited; also recorded: alleviating"}, {"measurement": "primary foot lesions (foot swelling, sensitization side)", "setting": "5 mg/kg and 20 mg/kg, oral, once a day, compared to the model group, P<0.05, FIG. 4", "value": "significantly inhibited; also recorded: alleviating"}, {"measurement": "overall therapeutic effect on adjuvant-induced arthritis in rats", "setting": "daily oral administration", "value": "remarkable therapeutic effect"}]}
